Positions of bridges follow the written chain, without caps; N, C: chain ends. Residues, ends and D or L forms follow the SMILES beside them. Chains are numbered I, II in the order given. *: point of attachment. FITC = O=C1OC2(c3ccc(O)cc3Oc3cc(O)ccc32)c2ccc(NC(=S)*)cc21
Tests used:
CCL8_HUMAN = biological target: T1, CCL8_HUMAN (Homo sapiens, UniProt P80075); test: Neutralisation of chemokine induced THP-1 cell migration; type: cell-based
T1 sequence (P80075 24-99): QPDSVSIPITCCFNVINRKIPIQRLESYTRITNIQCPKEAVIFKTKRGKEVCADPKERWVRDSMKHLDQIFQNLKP
Experimental: Table 1. Tick CKBPs described in PCT/GB2017/050563 and [17]. Tick peptide sequences isolated in yeast surface display fluorescent-activated cell sorting (FACS) screens using a labelled chemokine. Identity with Evasin-1, 4 or 3 was calculated using BLAST. Abbreviations: IXORI—Ixodes ricinus, RHISA—Rhipicephalus sanguineus, AMBMA—Amblyomma maculatum, AMBPA—Amblyomma parvum, AMBTR—Amblyomma triste, AMBAM—Amblyomma americanum, AMBCA—Amblyomma cajennense, RHIPU—Rhipicephalus pulchellus. Table 2A-C. Binding characteristics of tick CKBPs previously disclosed (PCT/GB2017/050563 and [17]). All members of the human chemokine family[164] are listed in column 1. Binding to human chemokines was determined for 14 tick CKBPs using biolayer interferometry (BLI) with calculated Kd shown as Molar (Moles/Litre). Binding data for 17 other novel tick CKBPs was assayed using yeast surface display[17,166],with positive binding results shown as “YES”. For biolayer interferometry, His-tagged purified tick CKBP was bound to a Ni-NINTA sensor on an OctetRed® 384 system, and then binding to each chemokine listed (with the exception of CCL25, CCL26, CXCL16, CXCL17, CXCL4L1, XCL2) was assayed in a cross-binding screen at a chemokine concentration of 300 nM as described. For those chemokines showing binding to a tick CKBP in the cross-binding screen, binding assays were repeated using different doses of chemokine. Association, equilibrium and dissociation data were analysed using Octet software to create corresponding fitted curves, and used to calculate Kd. For yeast surface display, (YSD) background fluorescence was controlled for by using either an empty vector or by omitting the chemokine (i.e. using streptavidin-Alexa647 alone). An arbitrary threshold of >3 fold over background mean fluorescence intensity was chosen to describe confirmed re-tests. Where binding was detected data are indicated as “YES”. […] For yeast surface display data, empty cells represent chemokines that were not tested. Binding data published in relation to previously described tick CKBPs (Evasins-1, 4 and 3) is also shown for comparison in each of FIGS. 2A-C, with the relevant data obtained from publications: [20-22,32]. Table 3: Neutralisation of human chemokines by tick CKBPs previously disclosed (PCT/GB2017/050563 and [17]). Neutralising activity was determined using a quantitative THP1 cell migration assay in a 96-well Boyden chamber with chemokine in the bottom chamber as described. Cells migrating through to the bottom chamber at 4 hours were counted using flow cytometry in a 96 well plate format. IC50 for neutralisation was determined at the chemokine EC80 dose as determined using a range of tick CKBP concentrations. Data was analysed using GraphPad Prism to determine IC50, which is shown as Molar (Moles/Litre). Empty cells represent experiments not done. Table 4—Other previously described tick CKBPs. Tick CKBPs that were also described in PCT/GB2017/050563 and Singh et al. are indicated in “Notes”. Table 5.—Novel tick CKBPs of the invention. Table 6. […] The peptide sequence prefix indicates the identity, and suffix indicate the tick species as follows: AMBCA, Amblyomma cajennense and IXORI, Ixodes ricinus. […] Individual yeast clones recovered from the library were re-tested using a FACS (fluorescence activated cell sorting), experiment. The binding of the peptide to the chemokine was assayed by measuring the percent (%), of yeast cells expressing the given peptide that exceeded a background threshold set by measuring the fluorescence of the yeast library pool treated with streptavidin-[…] alone. When more than one independent yeast clone was isolated for a given peptide-chemokine combination, the mean percent shift was calculated and reported in column 3.

human CCL8-647 = biological target: T2, human CCL8-647 (Homo sapiens, UniProt P80075); test: Fluorescent chemokine binding to THP-1 cells (flow cytometry); type: cell-based
T2 construct: purchased Almac (UK)
T2 sequence (P80075 24-99): T1 sequence (P80075 24-99)
Experimental: P672_PEP_SCRAM (C-terminally amidated)=[…] FIG. 16(A). […] 60 μM (+) P672_PEP or P672_PEP_SCRAM were incubated with CCL8-647 (2.5 nM) for half an hour at 37° C. prior to adding to THP-1 cells and incubating everything together for a further half an hour at 37° C. Cells were then analysed using fluorescence assisted cell sorting (10,000 cells analysed) and MFI recorded. Experiment carried out in triplicate where each data point is the average of one experiment carried out in technical triplicate. Mean with SEM shown and statistical significance was determined using one-way ANOVA with Sidak's correction for multiple comparisons using Graph Pad Prism 6. ****=P<0.00005, ns=not significant.
Data are shown as mean of two technical replicates. […] Curves were fitted with 4 parameters to estimate IC50.
Fluorescent chemokine (conjugated to AlexaFluor-647) binding to THP-1 cells results in an increase in the cellular fluorescence intensity, which is quantitatively measured using flow cytometry.
Fluorescent Chemokine/Receptor Blocking Assay CCL8-647 (2.5 nM, final) or […] (1.2 nM, final) was incubated for 30 minutes with varying doses of peptide (0-100 μM, final concentration) in 50 μL assay buffer (RPMI-1640+L-glutamine (4 mM)+10% heat treated fetal bovine serum+0.2% DMSO) at 37° C. […]

CCL8 = biological target: T3, CCL8 (Homo sapiens, UniProt P80075); test: Fluorescence polarisation (anisotropy) assay; type: binding; conditions: BK1.1FITC Ala mutants, CCL8
T3 construct: SUMO (in-house protein only) (cleaved yes); made in house; host or cells: Escherichia coli RosettaGami 2 (DE3)
T3 sequence (P80075 24-99): T1 sequence (P80075 24-99)
From the text: FIG. 14. Characterisation of P672_PEP-FITC by fluorescence polarisation. […] Residue C30 was mutated to A to avoid an unpaired cysteine residue. The residues corresponding to the above peptide are wholly contained within the CCL8-binding region of P672_RHIPU transferred in the hybrid evasin P672:EVA1 (SEQ ID 76, see FIG. 5). […] (SEQ ID NO: 90). FIG. 14(A). […] The curve was fitted to the two site-total and non-specific binding model in GraphPad Prism 6. Data are shown as mean and SEM of three independent experiments, with each independent experiment performed as three technical replicates. The affinity constant Kd was calculated in GraphPad Prism from the curve fit with the standard error reported.
FIG. 14(B). […] The measured fluorescence anisotropy (y-axis) of P672_PEP-FITC (50 nM) following binding to a fixed dose (1 μM)) of CCL7, CCL8, CCL18 and CXCL1 (negative control). […] Statistical significance was determined using one-way ANOVA with Sidak's correction for multiple comparisons using Graph Pad Prism 6. **=p<0.005, ****=P<0.00005, ns=not significant.
FIG. 15(C). […] In each case 100 μM (++) or […] (+) of P672_PEP was incubated with P672_PEP-FITC (50 nM)/chemokine (1 μM CCL7 and CCL18; 500 nM CCL8) and the resulting anisotropy measured. […] Experiment carried out in triplicate where each data point is the average of one experiment carried out in technical triplicate. Mean with SEM shown and statistical significance was determined using one-way ANOVA with Sidak's correction for multiple comparisons using Graph Pad Prism 6. *=p<0.05, ***=p<0.0005, ****=P<0.00005, ns=not significant.
Fluorescence polarization assays were performed using a Clariostar (BMG Tech) plate reader with the supplied FITC excitation and emission filters using 96 half area well plates (Corning). The buffer used (FP assay buffer) was 50 mM HEPES, 150 mM NaCl, 0.1% BSA, 0.002% TWEEN-20, 0.2% DMSO, pH 7.4 and the final volume in each well was 30 μL. Polarization was converted to anisotropy using the equation A=(2*P)/(3−P) where P is polarization and A is anisotropy. For each peptide tested the gain was set to 35 mP and adjusted to a well containing fluorescent peptide only. The polarization of the emitted light in the FITC emission channel was then determined. Experiments were performed as two technical and three biological replicates. Screening of P672 peptide fragments was achieved through incubation of each peptide (50 nM) with 1 μM CCL8 (Peprotech) for 30 minutes in FP assay buffer and the resulting anisotropy of the emitted light determined as above. The chemokine cross binding screen was performed by incubating 1 μM chemokine (Peprotech) with 50 nM BK1.1FITC for half an hour in FP assay buffer and the resulting anisotropy of the emitted light determined as above. […] The anisotropy was plotted as a function of CCL8 concentration and fitted to the equation: Y=Bmax*X/(KD+X)+NS*X+Background, where Y is the measured anisotropy, X is the concentration of CCL8 added, Bmax is the maximum binding, KD is the equilibrium dissociation constant, NS is the slope of the nonlinear regression and Background is the anisotropy when no CCL8 is present, in Graph Pad Prism. Displacement assays were carried out with CCL7, CCL8, and CCL18 (Peprotech, 1 μM). […] For all FP assays, the experiments were carried out as two technical and three biological replicates.

Row | Compound | IC50 (CCL8_HUMAN) | IC50 (human CCL8-647) | Fold change (Kd versus WT) (CCL8)
1 | CC(C)[C@H](NC(=O)[C@@H]1CCCN1C(=O)[C@H](CCCCN)NC(=O)[C@H](Cc1ccccc1)NC(=O)[C@H](Cc1ccccc1)NC(=O)[C@H](CC(=O)O)NC(=O)[C@H](CCC(=O)O)NC(=O)[C@H](Cc1ccc(O)cc1)NC(=O)[C@H](CC(=O)O)NC(=O)[C@H](CCC(=O)O)NC(=O)[C@H](CC(=O)O)NC(=O)[C@H](CCC(=O)O)NC(=O)[C@@H](N)Cc1ccc(O)cc1)C(=O)N[C@H](C(=O)N[C@@H](CSSC[C@H](NC(=O)[C@@H](NC(=O)[C@@H](NC(=O)[C@@H]1CCCN1C(=O)[C@H](CCCCN)NC(=O)[C@H](Cc1ccccc1)NC(=O)[C@H](Cc1ccccc1)NC(=O)[C@H](CC(=O)O)NC(=O)[C@H](CCC(=O)O)NC(=O)[C@H](Cc1ccc(O)cc1)NC(=O)[C@H](CC(=O)O)NC(=O)[C@H](CCC(=O)O)NC(=O)[C@H](CC(=O)O)NC(=O)[C@H](CCC(=O)O)NC(=O)[C@@H](N)Cc1ccc(O)cc1)C(C)C)[C@@H](C)O)C(=O)N[C@@H](Cc1ccc(O)cc1)C(=O)N[C@@H](Cc1ccccc1)C(N)=O)C(=O)N[C@@H](Cc1ccc(O)cc1)C(=O)N[C@@H](Cc1ccccc1)C(N)=O)[C@@H](C)O [BK1.3] (I: H-YEDEDYEDFFKPVTCYF-NH2 / II: H-YEDEDYEDFFKPVTCYF-NH2; disulfide I:15-II:15) | 8 nM | 47 nM | 
2 | C[C@H](NC(=O)[C@@H](NC(=O)[C@H](C)NC(=O)[C@@H]1CCCN1C(=O)[C@H](CCCCN)NC(=O)[C@H](Cc1ccccc1)NC(=O)[C@H](Cc1ccccc1)NC(=O)[C@H](CC(=O)O)NC(=O)[C@H](CCC(=O)O)NC(=O)[C@H](Cc1ccc(O)cc1)NC(=O)[C@H](CC(=O)O)NC(=O)[C@H](CCC(=O)O)NC(=O)[C@H](CC(=O)O)NC(=O)[C@H](CCC(=O)O)NC(=S)Nc1ccc2c(c1)C(=O)OC21c2ccc(O)cc2Oc2cc(O)ccc21)[C@@H](C)O)C(=O)N[C@@H](Cc1ccc(O)cc1)C(=O)N[C@@H](Cc1ccccc1)C(N)=O [V28A] ({FITC}-EDEDYEDFFKPATAYF-NH2) |  |  | 3.8
3 | CC(C)[C@H](NC(=O)[C@@H]1CCCN1C(=O)[C@H](CCCCN)NC(=O)[C@H](Cc1ccccc1)NC(=O)[C@H](Cc1ccccc1)NC(=O)[C@H](CC(=O)O)NC(=O)[C@H](CCC(=O)O)NC(=O)[C@H](C)NC(=O)[C@H](CC(=O)O)NC(=O)[C@H](CCC(=O)O)NC(=O)[C@H](CC(=O)O)NC(=O)[C@H](CCC(=O)O)NC(=S)Nc1ccc2c(c1)C(=O)OC21c2ccc(O)cc2Oc2cc(O)ccc21)C(=O)N[C@H](C(=O)N[C@@H](C)C(=O)N[C@@H](Cc1ccc(O)cc1)C(=O)N[C@@H](Cc1ccccc1)C(N)=O)[C@@H](C)O [Y21A] ({FITC}-EDEDAEDFFKPVTAYF-NH2) |  |  | 4.7
4 | CC(C)[C@H](NC(=O)[C@@H]1CCCN1C(=O)[C@H](CCCCN)NC(=O)[C@H](Cc1ccccc1)NC(=O)[C@H](Cc1ccccc1)NC(=O)[C@H](CC(=O)O)NC(=O)[C@H](CCC(=O)O)NC(=O)[C@H](Cc1ccc(O)cc1)NC(=O)[C@H](CC(=O)O)NC(=O)[C@H](CCC(=O)O)NC(=O)[C@H](CC(=O)O)NC(=O)[C@H](CCC(=O)O)NC(=S)Nc1ccc2c(c1)C(=O)OC21c2ccc(O)cc2Oc2cc(O)ccc21)C(=O)N[C@H](C(=O)N[C@@H](C)C(=O)N[C@@H](C)C(=O)N[C@@H](Cc1ccccc1)C(N)=O)[C@@H](C)O [Y31A] ({FITC}-EDEDYEDFFKPVTAAF-NH2) |  |  | 3.8

Reference: patent publication US20200247855A1, “THERAPY AND DIAGNOSTICS” (OXFORD UNIVERSITY INNOVATION LIMITED, priority 2017, published 2020)
